Source: US5200415A, “Pyrazolo[1,5-a]pyridine-3-carboxylic acid derivatives and their pharmaceutical use” (Asahi Kasei Kogyo Kabushiki Kaisha, priority 1990, dated 1993)
Like-named read-outs stand apart in the source and are kept apart here.

What was measured:
5-HT3 receptor = molecular target: T1, 5-HT3 receptor (Rattus norvegicus, UniProt P35563); assay: 5-HT3 receptor binding experiment (3H-quipazine binding assay, rat cerebral cortical membrane fraction); settings: for inhibition at 0.001 µM / inhibition at 0.01 µM: read-out: Binding inhibitory rate
T1 sequence (P35563 24-483): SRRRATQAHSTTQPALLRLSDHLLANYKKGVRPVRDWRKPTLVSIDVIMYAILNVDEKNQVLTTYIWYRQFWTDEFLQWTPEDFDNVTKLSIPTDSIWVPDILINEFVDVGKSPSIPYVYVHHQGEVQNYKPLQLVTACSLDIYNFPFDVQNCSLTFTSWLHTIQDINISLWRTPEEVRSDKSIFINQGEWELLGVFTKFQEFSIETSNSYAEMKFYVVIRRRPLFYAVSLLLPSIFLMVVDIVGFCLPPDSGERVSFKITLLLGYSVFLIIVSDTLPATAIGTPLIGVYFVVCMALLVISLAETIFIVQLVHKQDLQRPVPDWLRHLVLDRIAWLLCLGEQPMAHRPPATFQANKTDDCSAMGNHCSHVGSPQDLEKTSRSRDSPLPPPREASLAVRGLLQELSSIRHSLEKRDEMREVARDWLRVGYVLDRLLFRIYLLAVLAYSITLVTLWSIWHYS

female beagles = assay: Antiemetic effects against cisplatin-induced vomiting; format: in vivo, female beagles (dog); settings: for Latency of the first vomit / Number of vomits: test compound 0.1 mg/kg i.v. 75 minutes after cisplatin 3 mg/kg i.v.; for Number of vomits: 4 hours observation; for Vomiting after cisplatin (result in words): two beagles, test compound 0.1 mg/kg i.v., cisplatin 3 mg/kg i.v.
Excerpt: Using four 9-13 month-old female beagles having a body weight of 7.5-9.6 Kg (furnished by Toyo Research Animal Inc.), the antiemetic effects of certain compounds of the present invention were investigated.
As test compounds, the compounds obtained in Examples 8 and 9, respectively, were individually weighed and dissolved in 0.01N hydrochloric acid. The resultant solutions were neutralized to about pH 7 with 0.01N NaOH to provide aqueous solutions for administration. Cisplatin ("Briplatin Injection", product of Bristol-Myers Co.) was used as an emetic.
To see the emetic effects of cisplatin to each animal, vomiting after the administration of cisplatin was first observed (control group). Next, seven weeks later, each group consisting of two beagles was intravenously administered with 0.1 mg/kg (0.2 ml/kg) of the compound of Example 8 or 9 upon an elapsed time of 75 minutes after the administration of cisplatin, and the group administered with the compound of Example 8 and the group administered with the compound of Example 9 were both observed for vomit. Cisplatin was intravenously administered at the dosage of 3 mg/kg (in the volume of 6 ml/kg) and the administration rate of 10 ml/min.
The laboratory animals were fasted for about 24 hours prior to administration of cisplatin and, one hour after the administration of cisplatin, were fed. Vomit was determined depending on whether vomitus was discharged out of the mouth. With respect to the number of vomits and their latency, observation was continued for 4 hours after the administration of cisplatin.
Based on the observation, the latency of the first vomit of and the number of vomits of each laboratory animal after the administration of cisplatin are shown in Table 3-A and Table 3-B.

SMILES: Cc1ccn2ncc(C(=O)O[C@H]3C[C@H]4CC[C@@H](C3)N4C)c2c1 [Example 17, endo-8-methyl-8-azabicyclo[3.2.1]-oct-3-yl 5-methylpyrazolo[1,5-a]pyridine-3-carboxylate]
- IC50 (5-HT3 receptor): 25.8 nM

SMILES: Cc1cccc2c(C(=O)N[C@@H]3CN4CCC3CC4)cnn12 [Example 10, (S)-(-)-N-(1-azabicyclo[2.2.2]oct-3-yl)-7-methylpyrazolo[1,5-a]pyridine-3-carboxamide]
- IC50 (5-HT3 receptor): 0.28 nM

SMILES: CN1[C@@H]2CC[C@H]1C[C@@H](OC(=O)c1cnn3ccccc13)C2 [Example 6, endo-8-methyl-8-azabicyclo[3.2.1]-oct-3-yl pyrazolo[1,5-a]pyridine-3-carboxylate]
- IC50 (5-HT3 receptor): 16.5 nM
- inhibition at 0.001 µM (5-HT3 receptor): 9%
- inhibition at 0.01 µM (5-HT3 receptor): 37%

SMILES: Cc1cccn2ncc(C(=O)O[C@H]3C[C@H]4CC[C@@H](C3)N4C)c12 [Example 16, endo-8-methyl-8-azabicyclo[3.2.1]-oct-3-yl 4-methyl-pyrazolo[1,5-a]pyridine-3-carboxylate]
- IC50 (5-HT3 receptor): 3.5 nM

SMILES: Cc1nn2ccccc2c1C(=O)O[C@H]1C[C@H]2CC[C@@H](C1)N2C [Example 15, endo-8-methyl-8-azabicyclo[3.2.1]-oct-3-yl 2-methyl-pyrazolo[1,5-a]pyridine-3-carboxylate]
- IC50 (5-HT3 receptor): 2.7 nM

SMILES: Cc1ccn2ncc(C(=O)O)c2c1 [Control* 4, 5Methylpyrazolo[1,5a]pyridine3-carboxylic acid, reference compound]
- IC50 (5-HT3 receptor): > 10000 nM

SMILES: O=C(NC1CN2CCC1CC2)c1cnn2ccccc12 (stereo not drawn) [Example 1, N-(1-azabicyclo[2.2.2]oct-3-yl)-3-pyrazolo[1,5-a]pyridinecarboxamide]
- IC50 (5-HT3 receptor): 41.1 nM
- inhibition at 0.01 µM (5-HT3 receptor): 50%

SMILES: Cc1ccc2c(C(=O)O)cnn2c1 [Control* 5, 6Methylpyrazolo[1,5a]pyridine3-carboxylic acid, reference compound]
- IC50 (5-HT3 receptor): > 10000 nM

SMILES: Cc1nn2c(C)cccc2c1C(=O)NC1CN2CCC1CC2 (stereo not drawn) [Example 19]
- IC50 (5-HT3 receptor): 5.2 nM

SMILES: Cc1cccn2ncc(C(=O)O)c12 [Control* 3, 4Methylpyrazolo[1,5a]pyridine3-carboxylic acid, reference compound]
- IC50 (5-HT3 receptor): > 10000 nM

SMILES: Cc1cccc2c(C(=O)N[C@H]3CN4CCC3CC4)cnn12 [Example 11, (R)-(+)-N-(1-azabicyclo[2.2.2]oct-3-yl)-7-methylpyrazolo[1,5-a]pyridine-3-carboxamide]
- IC50 (5-HT3 receptor): 44.9 nM

SMILES: Cc1nn2ccccc2c1C(=O)O [Control* 2, 2Methylpyrazolo[1,5a]pyridine3-carboxylic acid, reference compound]
- IC50 (5-HT3 receptor): > 10000 nM

SMILES: Cc1nn2c(C)cccc2c1C(=O)O [Control* 7, 2,7Dimethylpyrazolo[1,5a]pyridine3-carboxylic acid, reference compound]
- IC50 (5-HT3 receptor): > 10000 nM

SMILES: Cc1cccc2c(C(=O)N[C@H]3C[C@H]4CCC[C@@H](C3)N4C)cnn12 [Example 9, endo-9-methyl-9-azabicyclo[3.3.1]-non-3-yl 7-methyl-pyrazolo[1,5-a]pyridine-3-carboxamide]
- IC50 (5-HT3 receptor; read-out: IC50 value): 53.7 nM
- Latency of the first vomit (female beagles; Dog No. 3): 132 min
- Number of vomits (female beagles; Dog No. 3): 12 times
- Latency of the first vomit (female beagles; Dog No. 4): 173 min
- Vomiting after cisplatin (result in words) (female beagles): number of vomits therefore decreased in one case

SMILES: Cc1cccc2c(C(=O)NC3CN4CCC3CC4)cnn12 (stereo not drawn) [Example 4, 7-methyl-N-(1-azabicyclo[2.2.2]oct-3-yl)-3-pyrazolo[1,5-a]pyridinecarboxamide]
- IC50 (5-HT3 receptor): 7.2 nM
- inhibition at 0.01 µM (5-HT3 receptor): 82%

SMILES: Cc1cccc2c(C(=O)O)cnn12 [Control* 6, 7Methylpyrazolo[1,5a]pyridine3-carboxylic acid, reference compound]
- IC50 (5-HT3 receptor): > 10000 nM

SMILES: Cc1cccc2c(C(=O)N[C@H]3C[C@H]4CC[C@@H](C3)N4C)cnn12 [Example 8, endo-8-methyl-8-azabicyclo[3.2.1]-oct-3-yl 7-methyl-pyrazolo[1,5-a]pyridine-3-carboxamide]
- IC50 (5-HT3 receptor): 19.1 nM
- Number of vomits (female beagles; Dog No. 1): 0 times
- Number of vomits (female beagles; Dog No. 2): 0 times
- Vomiting after cisplatin (result in words) (female beagles): No vomit

SMILES: Cc1nn2ccccc2c1C(=O)NC1CN2CCC1CC2 (stereo not drawn) [Example 5, 2-methyl-N-(1-azabicyclo[2.2.2]oct-3-yl)-3-pyrazolo[1,5-a]pyridinecarboxamide]
- IC50 (5-HT3 receptor): 18.9 nM
- inhibition at 0.01 µM (5-HT3 receptor): 50%

SMILES: Cc1ccn2ncc(C(=O)NC3CN4CCC3CC4)c2c1 (stereo not drawn) [Example 2, 5-methyl-N-(1-azabicyclo[2.2.2]oct-3-yl)-3-pyrazolo[1,5-a]pyridinecarboxamide]
- IC50 (5-HT3 receptor): 43.2 nM
- inhibition at 0.01 µM (5-HT3 receptor): 31%

SMILES: Cc1cccc2c(C(=O)O[C@H]3C[C@H]4CC[C@@H](C3)N4C)cnn12 [Example 7, endo-8-methyl-8-azabicyclo[3.2.1]-oct-3-yl 7-methylpyrazolo[1,5-a]pyridine-3-carboxylate]
- IC50 (5-HT3 receptor): 1 nM
- inhibition at 0.001 µM (5-HT3 receptor): 43%
- inhibition at 0.01 µM (5-HT3 receptor): 77%

SMILES: O=C(O)c1cnn2ccccc12 [Control* 1, Pyrazolo[1,5a]pyridine3-carboxylic acid, reference compound]
- IC50 (5-HT3 receptor): > 10000 nM
